Results reported in patent US8101766B2, “Crystalline form of a biphenyl compound” (Theravance, Inc., priority 2004, dated 2012).

Assays:
[1] = target: T1, human M3 muscarinic receptor (Homo sapiens, UniProt P20309); assay: Radioligand binding assay for muscarinic receptors (hM3); conditions: [3H]-NMS displacement, CHO cell membranes
T1 construct: expressed in transfected cells
Protocol: Cell Culture and Membrane Preparation from Cells Expressing Human M1, M2, M3 and M4 Muscarinic Receptors
CHO cell lines stably expressing cloned human hM1, hM2, hM3 and hM4 muscarinic receptor subtypes, respectively, were grown to near confluency in HAM's F-12 media supplemented with 10% FBS and 250 μg/mL Geneticin. The cells were grown in a 5% CO2, 37° C. incubator and lifted with 2 mM EDTA in dPBS. Cells were collected by 5 minute centrifugation at 650×g, and cell pellets were either stored frozen at −80° C. or membranes were prepared immediately for use. […] The protein concentration of the membrane suspension was determined by the method described in Lowry et al., 1951, Journal of Biochemistry, 193, 265. […]
Radioligand binding assays for cloned human muscarinic receptors were performed in 96-well microtiter plates in a total assay volume of 100 μL. […] Filter plates were rinsed three times with wash buffer (10 mM HEPES) to remove unbound radioactivity. […] The plates were then counted in a PerkinElmer Topcount liquid scintillation counter (PerkinElmer Inc., Wellesley, Mass.). Binding data were analyzed by nonlinear regression analysis with the GraphPad Prism Software package (GraphPad Software, Inc., San Diego, Calif.) using the one-site competition model. […]

β2 adrenergic receptor = β2 adrenergic receptor (Homo sapiens, UniProt P07550); assay: Radioligand binding assay for human β2 adrenergic receptor; design: expressed in transfected cells; conditions: radioligand displacement, CHO cell membranes
Chain of β2 adrenergic receptor (P07550 whole entry): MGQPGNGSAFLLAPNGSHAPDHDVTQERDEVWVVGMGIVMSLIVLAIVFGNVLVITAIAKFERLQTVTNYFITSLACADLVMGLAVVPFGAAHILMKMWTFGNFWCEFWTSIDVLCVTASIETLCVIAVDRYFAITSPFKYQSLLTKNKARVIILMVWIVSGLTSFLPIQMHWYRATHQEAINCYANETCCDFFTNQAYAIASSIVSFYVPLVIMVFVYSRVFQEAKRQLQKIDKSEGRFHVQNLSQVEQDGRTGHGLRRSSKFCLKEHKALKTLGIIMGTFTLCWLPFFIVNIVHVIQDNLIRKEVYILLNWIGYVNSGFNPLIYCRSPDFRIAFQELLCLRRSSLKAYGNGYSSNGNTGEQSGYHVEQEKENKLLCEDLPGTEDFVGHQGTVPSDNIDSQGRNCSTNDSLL
Protocol: The cell monolayer was lifted with 2 mM EDTA in PBS. […] All membranes were stored frozen in aliquots at −80° C. or used immediately.

T1 sequence (P20309 whole entry): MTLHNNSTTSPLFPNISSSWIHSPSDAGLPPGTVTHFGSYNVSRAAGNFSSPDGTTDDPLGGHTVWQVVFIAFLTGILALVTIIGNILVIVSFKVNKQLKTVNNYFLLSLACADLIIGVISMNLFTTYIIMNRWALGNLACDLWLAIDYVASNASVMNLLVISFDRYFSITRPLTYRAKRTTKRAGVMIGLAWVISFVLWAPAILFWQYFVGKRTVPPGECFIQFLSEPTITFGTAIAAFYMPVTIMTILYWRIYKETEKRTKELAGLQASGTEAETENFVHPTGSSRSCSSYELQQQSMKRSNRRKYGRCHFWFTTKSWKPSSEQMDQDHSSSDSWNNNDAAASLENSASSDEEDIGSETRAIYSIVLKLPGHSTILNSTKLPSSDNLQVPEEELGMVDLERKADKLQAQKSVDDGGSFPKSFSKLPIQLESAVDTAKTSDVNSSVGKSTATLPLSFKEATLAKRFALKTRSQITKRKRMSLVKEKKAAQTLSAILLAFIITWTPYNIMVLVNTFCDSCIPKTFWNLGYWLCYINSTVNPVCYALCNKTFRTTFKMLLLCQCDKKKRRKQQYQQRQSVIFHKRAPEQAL

With `COc1cc(NC(=O)CCN2CCC(OC(=O)Nc3ccccc3-c3ccccc3)CC2)c(Cl)cc1CNC[C@H](O)c1ccc(O)c2[nH]c(=O)ccc12` [compound of formula I, biphenyl-2-ylcarbamic acid 1-[2-(2-chloro-4-{[(R)-2-hydroxy-2-(8-hydroxy-2-oxo-1,2-dihydroquinolin-5-yl)ethylamino]methyl}-5-methoxyphenylcarbamoyl)ethyl]piperidin-4-yl ester] the Ki [1] was < 0.01 µM and the Ki (β2 adrenergic receptor) was < 0.01 µM.
